Patent US20240325517A1, “COMPOSITIONS AND METHODS TARGETING FILAMENTOUS BACTERIOPHAGE” (THE UNIVERSITY OF MONTANA, priority 2020, published 2024)
Read-outs that look alike come from different tables or passages of the source. Where no end group is shown, it is not given here.

Experiments:
CoaBb1 = assay: Total IgG ELISA, plate coated with CoaBb1 (Example 11); format: in vivo, C57/BL/6 mice; conditions: 1 μg conjugate IM, with 1 μg Adj A where named; booster day 14; serum 14 days post-secondary
Experimental: (§1) Female C57/BL/6 mice aged 6-8 weeks old (8 per group) were vaccinated intramuscularly with 1 μg of CoaBa-CRM or […] of CoaBb-CRM conjugate in combination with […] dose of TLR 4 agonist Adjuvant A. A booster with 1 μg dose of Adjuvant A adjuvant combination with 1 μg of respective conjugate was administered 14 days post primary. ELISA data is from serum collected 14 days post-secondary vaccination boost. CoaBa1 within-clade cross reactive immunity against coaBa2 was determined. (Tables 15 and 16). Clade A CoaBa cross-reactive immunity against Clade B CoaBb epitope was determined. (Table 17).

CoaBa2 = assay: Total IgG ELISA, plate coated with CoaBa2 (Example 11); format: in vivo, C57/BL/6 mice; conditions: for Total IgG ELISA plate coated with CoaBa2: 1 μg conjugate IM, with 1 μg Adj A where named, booster day 14, serum 14 days post-secondary
Experimental: as §1

CoaBa1 = assay: Total IgG ELISA, plate coated with CoaBa1 (Example 11); format: in vivo, C57/BL/6 mice; conditions: for Total IgG ELISA plate coated with CoaBa1: 1 μg conjugate IM, with 1 μg Adj A where named, booster day 14, serum 14 days post-secondary; for cross-reactivity to CoaBa1 (in words): vaccination, Tables 16 and 17 cited in text
Experimental: as §1

CoaBa [1] = assay: Anti-CoaBa IgG subtypes induced with TLR4 agonist, ELISA (Example 10); format: in vivo, C57/BL/6 mice; parameters: unit not given here; conditions: booster day 14, serum 14 days post-secondary
CoaBa1 hapten = assay: Adjuvant system for CoaB-CRM conjugate, total serum IgG ELISA (Example 9); format: in vivo, C57/BL/6 mice; conditions: for Mean Log10 total serum IgG titer: booster day 14, serum 14 days post-secondary
Experimental: The lead CoaB vaccines consist of a peptide hapten conjugated to CRM197. To determine whether TLR7 and TLR4 adjuvants would provide a beneficial effect on antibody titres or provide a dose sparing effect, female C57/BL/6 mice aged 6-8 weeks old (10 per group) were vaccinated intramuscularly with 1 μg of CoaBa-CRM conjugate in combination with indicated dose of (Adjuvant B), a TLR 7/8 adjuvant, and or (Adjuvant A) a TLR4 adjuvant. A booster with respective dose of adjuvant combination with […] of CoaBa-CRM conjugate was administered 14 days post primary. ELISA data is from serum collected 14 days post-secondary vaccination boost.

CoaBa [2] = assay: Anti-CoaBa IgG subtypes induced with TLR4 agonist, ELISA (Example 10); format: in vivo, C57/BL/6 mice; parameters: Mean total IgG / Mean IgG1 / Mean IgG2b: unit not given here; conditions: for Mean IgG1 / Mean IgG2b / Mean total IgG: booster day 14, serum 14 days post-secondary
Experimental: Female C57/BL/6 mice aged 6-8 weeks old (5 per group) were vaccinated intramuscularly with […] of CoaBa-CRM conjugate in combination with indicated dose of TLR4 agonist Adjuvant A. A booster with respective dose of adjuvant combination with 1 μg of CoaBa-CRM conjugate was administered 14 days post primary. ELISA data are from serum collected 14 days postsecondary vaccination boost. (A) Total IgG, (B) IgG1, (C) IgG2a isotypes are shown.

[3] = cited from earlier work
sheep red blood cells = conditions: cited from earlier work
[4] = biological target: CoaBa (Pseudomonas aeruginosa filamentous (Pf) bacteriophage); assay: anti-CoaBa serum ELISA; 14 days post boost; C57BL/6
[5] = 0.001 μg Adj A with 1 μg CoaBa-CRM conjugate IM
[6] = 0.01 μg Adj A with 1 μg CoaBa-CRM conjugate IM
[7] = 0.1 μg Adj A with 1 μg CoaBa-CRM conjugate IM
[8] = 10 μg Adj A with 1 μg CoaBa-CRM conjugate IM
[9] = 1 μg Adj A with 1 μg CoaBa-CRM conjugate IM
[10] = 0.0001 μg Adj A with 1 μg CoaBa-CRM conjugate IM

Molecule: CoaBa1: CoaBa1 hapten-CRM197 conjugate vaccine (GVIDTSAVESAITDGQGD; not fully specified)
- Total IgG ELISA plate coated with CoaBb1 (CoaBb1): 0.5
- Total IgG ELISA plate coated with CoaBa2 (CoaBa2): 0.5
- cross-reactivity to CoaBa2-CRM197 (in words) (CoaBa2; vaccination, Table 15 cited in text): produced cross-reactivity to CoaBa2-CRM197
- Total IgG ELISA plate coated with CoaBa1 (CoaBa1): 0.50

Molecule: CCCCCCCCCCC[C@H](CC(=O)NCCO[C@@H]1OC(CO)[C@@H](OS(=O)(=O)O)[C@H](NC(=O)C[C@@H](CCCCCCCCCCC)OC(=O)CCCCCCCCC)C1NC(=O)C[C@@H](CCCCCCCCCCC)OC(=O)CCCCCCCCC)OC(=O)CCCCCCCCC (stereo partly shown) [Adjuvant A]
- Mean IgG2b (CoaBa [1]; [5]): 1.22
- Mean IgG2b (CoaBa [1]; [6]): 2.45
- Mean IgG2b (CoaBa [1]; [7]): 3.90
- Mean IgG2b (CoaBa [1]; [8]): 3.31
- Mean Log10 total serum IgG titer (CoaBa1 hapten; [6]): 3.74 Log10
- Mean Log10 total serum IgG titer (CoaBa1 hapten; [7]): 4.55 Log10
- Mean Log10 total serum IgG titer (CoaBa1 hapten; [9]): 5.12 Log10
- antibody titers against the CoaBa1 hapten (in words) (CoaBa1 hapten; vaccine dose experiments with 1 μg CoaBa-CRM conjugate): produced the highest antibody titers against the CoaBa1 hapten
- Mean IgG1 (CoaBa [2]; [10]): 0.95
- Mean IgG2b (CoaBa [2]; [10]): 1.02
- Mean total IgG (CoaBa [2]; [10]): 1.27
- Mean IgG1 (CoaBa [2]; [5]): 1.86
- Mean total IgG (CoaBa [2]; [5]): 2.38
- Mean IgG1 (CoaBa [2]; [6]): 1.99
- Mean total IgG (CoaBa [2]; [6]): 3.15
- Mean IgG1 (CoaBa [2]; [7]): 2.45
- Mean total IgG (CoaBa [2]; [7]): 4.00
- Mean IgG1 (CoaBa [2]; [9]): 3.60
- Mean IgG2b (CoaBa [2]; [9]): 4.31
- Mean total IgG (CoaBa [2]; [9]): 4.19
- Mean IgG1 (CoaBa [2]; [8]): 2.88
- Mean total IgG (CoaBa [2]; [8]): 4.25
- IgG subtype analysis (in words) (CoaBa [2]; adjuvanting CoaBa with Adjuvant A): elicited both IgG1 and IgG2b subclasses

Molecule: CoaBb1: CoaBb-CRM conjugate vaccine, subclade b1 (ADSLIDETTKEVLTQAGTDG; also: conjugated to CRM carrier, site not given here)
- Total IgG ELISA plate coated with CoaBb1 (CoaBb1): 0.5
- cross-reactivity to CoaBa1 (in words) (CoaBa1): did not produce cross-reactive immunity to clade A subtypes CoaBa1

Molecule: QS-18
- critical micellar concentration ([3]; in phosphate buffered saline): 0.02 % (w/v)
- critical micellar concentration ([3]; in water): 0.04 % (w/v)

Molecule: QS-21
- critical micellar concentration ([3]; in phosphate buffered saline): ~0.02 % (w/v)
- critical micellar concentration ([3]; in water): about 0.03 % (w/v)
- concentrations causing hemolysis of sheep red blood cells (sheep red blood cells): ≥ 25000 ng/mL

Molecule: serum of naïve (unvaccinated) mice
- Mean IgG1 [4]: 0.5
- Mean IgG2b [4]: 0.5
- Mean total IgG [4]: 0.5

Molecule: CoaBa2: CoaBa2 hapten-CRM197 conjugate vaccine (GSVIDTSAVEAAITEGKGD; not fully specified)
- Total IgG ELISA plate coated with CoaBa2 (CoaBa2): 0.5
- Total IgG ELISA plate coated with CoaBa1 (CoaBa1): 0.50
- cross-reactivity to CoaBa1 (in words) (CoaBa1): produced cross-reactivity to CoaBa1-CRM197

Molecule: QS-17
- critical micellar concentration ([3]; in phosphate buffered saline): 0.03 % (w/v)
- critical micellar concentration ([3]; in water): 0.06 % (w/v)
- concentrations causing hemolysis of sheep red blood cells (sheep red blood cells): ≥ 25000 ng/mL
